Our source for the Activity and IC50 values is ChEMBL document CHEMBL5052855, “Method for predicting sensitivity of cancer cell to gpx4 inhibitor” (2021).

Activity calls are given as the source filed them. The rule behind the calls is not given here.

For one test, the system named is SK-HEP1. Briefly: Antitumor activity against human SK-HEP1 cells xenografted BALB/c nu mouse assessed as decrease in tumor volume at 100 mg/kg/day, po measured on the 18th day. In kind it is functional, organism-based. The note with it: time 18.0 day. (A xenograft is tissue or cells of one species grown in another, often human tumour cells in immunodeficient mice.)

Test [1] in a line: Antiproliferative activity against ARID1A/1B proficient human OVISE cells after 7 days by Cell-Titer Glo assay. The note with it: 168 h. The class given is functional, cell-based.

Turning to `Cc1onc(C(=O)N2CCN(C(c3ccc(Cl)cc3)c3ccc(Cl)cc3)CC2)c1[N+](=O)[O-]`, in the test with SK-HEP1, the outcome was Active.

Broadly, the IC50 is the concentration needed to halve the response being measured. Read a high IC50 as weaker potency. `COC(=O)c1ccc([C@H]2c3[nH]c4ccccc4c3C[C@H](C(=O)OC)N2C(=O)CCl)cc1`: the IC50 in test [1] was below 3 nM.
